Entries after “also recorded” stand apart in the source; their conditions may differ. Structures can show the parent of a compound that is named as a salt.
Assays:
[1] = tested on: scarring resulting from full thickness cutaneous incisional wounds; assay: Rat incisional wound scarring model, macroscopic VAS assessment of scars; assay type: in vivo, male Sprague Dawley rats; conditions: day 70 post-wounding
Experimental: (§1) The GABAA receptor agonist Gaboxadol hydrochloride (Sigma Aldrich, catalogue number T101) was diluted in phosphate buffered saline (PBS) to produce medicaments of the invention having the following concentrations:
(§2) i) 1.76 ng/100 μL (a concentration of 0.1 μM, in which each […] of the medicament provides 10 pmoles of Gaboxadol hydrochloride); ii) 1.76 μg/100 μL (a concentration of 100 μM, in which each 100 μl of the medicament provides 10 nmoles of Gaboxadol hydrochloride); and iii) 8.83 μg/100 μL (a concentration of 500 μM, in which each 100 μl of the medicament provides 50 nmoles of Gaboxadol hydrochloride).
(§3) At day 0, male Sprague Dawley rats (200-250 g) were anaesthetised, shaved and wound sites were marked according to a template in which two wounds, each 1 cm in length, were made at sites 5 cm from the base of the skull and 1 cm from the midline on the back of each rat.
(§4) One hundred microlitres of either one of the medicaments of the invention (comprising either 0.1 μM, 100 μM or 500 μM Gaboxadol hydrochloride in phosphate buffered saline pH 7.2—purchased from GIBCO BRL, Cat. # 20012-019), or placebo (PBS only) was injected intradermally at the wound sites. The intradermal injections caused the formation of a raised bleb, which was then immediately incised to form 1 cm long experimental wounds.
(§5) All treated or diluent control wounds were re-injected again 1 day post-wounding with the appropriate treatment (drug or placebo) via injection of 50 μl to each of the two margins of the 1 cm wound. All wounds were all harvested at day 70 post-wounding.
The wounds were photographed after wounding, prior to re-injection on day 1 and on day of harvest. The scars were assessed using a visual analogue scale (VAS) consisting of a 0-10 cm line representing a scale, from left to right, of 0 (corresponding to normal skin) to 10 (indicative of a bad scar).

[2] = tested on: scarring resulting from full thickness cutaneous incisional wounds; assay: Rat incisional wound scarring model, microscopic assessment of scars (Masson's trichrome); assay type: in vivo, male Sprague Dawley rats; conditions: day 70 post-wounding
Experimental: as §1, §2, §3, §4, §5
For microscopic assessment the scars were excised from the experimental rats (incorporating a small amount of surrounding normal tissue) and fixed in 10% (v/v) buffered formal saline. The fixed tissue was then processed for wax histology, stained using Masson's trichrome, and scarring in the regenerated dermis was assessed.

[3] = target: GABAA receptors containing α4β3δ subunits (Homo sapiens, UniProt P28472+P48169); conditions: Brown et al. 2002, cited from earlier work
Chain of GABAA receptors containing α4β3δ subunits (P48169 36-554): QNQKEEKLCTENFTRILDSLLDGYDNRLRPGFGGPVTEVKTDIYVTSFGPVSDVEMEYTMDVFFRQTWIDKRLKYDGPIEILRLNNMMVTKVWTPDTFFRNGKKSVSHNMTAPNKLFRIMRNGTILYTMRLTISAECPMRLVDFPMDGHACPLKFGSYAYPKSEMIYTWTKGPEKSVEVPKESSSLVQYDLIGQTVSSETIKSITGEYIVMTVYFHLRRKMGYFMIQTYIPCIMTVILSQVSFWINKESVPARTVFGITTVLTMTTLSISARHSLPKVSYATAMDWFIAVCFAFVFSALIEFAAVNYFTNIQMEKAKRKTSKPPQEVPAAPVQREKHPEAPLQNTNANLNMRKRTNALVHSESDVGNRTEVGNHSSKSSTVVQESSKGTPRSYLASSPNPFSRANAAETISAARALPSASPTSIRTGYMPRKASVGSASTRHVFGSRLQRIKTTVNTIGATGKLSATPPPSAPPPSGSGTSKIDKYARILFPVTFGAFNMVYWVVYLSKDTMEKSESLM
Chain of GABAA receptors containing α4β3δ subunits (P28472 26-473): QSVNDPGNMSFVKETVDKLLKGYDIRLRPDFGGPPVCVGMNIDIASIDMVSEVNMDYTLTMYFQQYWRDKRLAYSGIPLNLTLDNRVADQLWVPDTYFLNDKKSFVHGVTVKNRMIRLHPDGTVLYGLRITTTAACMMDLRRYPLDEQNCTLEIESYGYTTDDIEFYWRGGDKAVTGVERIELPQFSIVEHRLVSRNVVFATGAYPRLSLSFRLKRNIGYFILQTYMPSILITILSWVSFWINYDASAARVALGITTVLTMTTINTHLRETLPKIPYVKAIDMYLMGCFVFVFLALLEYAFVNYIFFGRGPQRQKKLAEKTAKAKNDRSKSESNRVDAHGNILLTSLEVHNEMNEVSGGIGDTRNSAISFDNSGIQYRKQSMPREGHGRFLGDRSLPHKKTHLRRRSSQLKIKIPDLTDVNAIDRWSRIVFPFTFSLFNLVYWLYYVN
Chain of GABAA receptors containing α4β3δ subunits (O14764 25-452 partner): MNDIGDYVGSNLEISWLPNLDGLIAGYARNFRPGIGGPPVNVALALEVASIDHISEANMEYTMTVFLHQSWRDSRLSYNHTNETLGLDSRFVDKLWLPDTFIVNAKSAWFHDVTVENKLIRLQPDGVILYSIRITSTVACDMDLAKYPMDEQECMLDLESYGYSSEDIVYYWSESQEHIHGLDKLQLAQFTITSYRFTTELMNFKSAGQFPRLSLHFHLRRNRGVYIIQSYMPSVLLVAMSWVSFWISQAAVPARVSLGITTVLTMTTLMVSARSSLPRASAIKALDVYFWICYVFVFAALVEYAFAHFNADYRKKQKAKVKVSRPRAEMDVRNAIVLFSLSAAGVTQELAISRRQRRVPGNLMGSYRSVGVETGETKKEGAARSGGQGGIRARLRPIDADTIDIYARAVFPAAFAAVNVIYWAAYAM

GABAA receptor = conditions: relative to GABA; cited from earlier work

## Oc1noc2c1CCNC2 [Gaboxadol hydrochloride]
[1]; 0.1 μM solution in PBS, two intradermal injections of 100 μl (1.76 ng per centimetre each)
  macroscopic appearance of scars (VAS) versus diluent control: improved the macroscopic appearance of scars; also recorded: statistically significant inhibition of scarring
[1]; 100 μM solution in PBS, two intradermal injections of 100 μl (1.76 μg per centimetre each)
  macroscopic appearance of scars (VAS) versus diluent control: improved the macroscopic appearance of scars; also recorded: trend towards scar reduction
[1]; 500 μM solution in PBS, two intradermal injections of 100 μl (8.83 μg per centimetre each)
  macroscopic appearance of scars (VAS) versus diluent control: improved the macroscopic appearance of scars
[2]; 0.1 μM solution in PBS
  scarring assessed microscopically: reduction of scarring
[2]; 100 μM solution in PBS
  scarring assessed microscopically: reduction of scarring
[2]; 500 μM solution in PBS
  scarring assessed microscopically: reduction of scarring

## Oc1noc2c1CCNC2 [Gaboxadol, 4,5,6,7-tetrahydroisoxazolo[5,4-c]pyridine-3-ol]
[3]
  EC50: 6 µM
[3]; relative to GABA
  maximum response (% of that of GABA): 163%
GABAA receptor
  affinity for GABAA receptors compared with GABA (in words): affinity higher than that of GABA itself

## NCc1cc(=O)[nH]o1 [Muscimol, muscimol]
GABAA receptor
  affinity at the GABAA receptor, greater than GABA: 10 fold

— patent US20110082171A1, “Medicaments and Methods for Inhibition of Scarring” (Renovo Limited, priority 2008, published 2011)
